Laboratory results from publication PMC7026418, “The kinase polypharmacology landscape of clinical PARP inhibitors” (Scientific Reports, 2020).
Read-outs that look alike come from different tables or passages of the source. Values belong to the molecule of their own block, whether it stands above or below them.

What was measured:
Assay in all cases: biochemical
Parameters in all cases: DiscoveRx KINOMEscan active site-directed competition binding; percent of control kinase bound to immobilised ligand
[1] = target: T1, ABL1(T315I)-phosphorylated (Homo sapiens, UniProt P00519, T315I)
T1 construct: phosphorylated

ASK2 = target: T2, ASK2 (Homo sapiens, UniProt O95382)
T2 construct: gene MAP3K6
T2 sequence (O95382 1-1288): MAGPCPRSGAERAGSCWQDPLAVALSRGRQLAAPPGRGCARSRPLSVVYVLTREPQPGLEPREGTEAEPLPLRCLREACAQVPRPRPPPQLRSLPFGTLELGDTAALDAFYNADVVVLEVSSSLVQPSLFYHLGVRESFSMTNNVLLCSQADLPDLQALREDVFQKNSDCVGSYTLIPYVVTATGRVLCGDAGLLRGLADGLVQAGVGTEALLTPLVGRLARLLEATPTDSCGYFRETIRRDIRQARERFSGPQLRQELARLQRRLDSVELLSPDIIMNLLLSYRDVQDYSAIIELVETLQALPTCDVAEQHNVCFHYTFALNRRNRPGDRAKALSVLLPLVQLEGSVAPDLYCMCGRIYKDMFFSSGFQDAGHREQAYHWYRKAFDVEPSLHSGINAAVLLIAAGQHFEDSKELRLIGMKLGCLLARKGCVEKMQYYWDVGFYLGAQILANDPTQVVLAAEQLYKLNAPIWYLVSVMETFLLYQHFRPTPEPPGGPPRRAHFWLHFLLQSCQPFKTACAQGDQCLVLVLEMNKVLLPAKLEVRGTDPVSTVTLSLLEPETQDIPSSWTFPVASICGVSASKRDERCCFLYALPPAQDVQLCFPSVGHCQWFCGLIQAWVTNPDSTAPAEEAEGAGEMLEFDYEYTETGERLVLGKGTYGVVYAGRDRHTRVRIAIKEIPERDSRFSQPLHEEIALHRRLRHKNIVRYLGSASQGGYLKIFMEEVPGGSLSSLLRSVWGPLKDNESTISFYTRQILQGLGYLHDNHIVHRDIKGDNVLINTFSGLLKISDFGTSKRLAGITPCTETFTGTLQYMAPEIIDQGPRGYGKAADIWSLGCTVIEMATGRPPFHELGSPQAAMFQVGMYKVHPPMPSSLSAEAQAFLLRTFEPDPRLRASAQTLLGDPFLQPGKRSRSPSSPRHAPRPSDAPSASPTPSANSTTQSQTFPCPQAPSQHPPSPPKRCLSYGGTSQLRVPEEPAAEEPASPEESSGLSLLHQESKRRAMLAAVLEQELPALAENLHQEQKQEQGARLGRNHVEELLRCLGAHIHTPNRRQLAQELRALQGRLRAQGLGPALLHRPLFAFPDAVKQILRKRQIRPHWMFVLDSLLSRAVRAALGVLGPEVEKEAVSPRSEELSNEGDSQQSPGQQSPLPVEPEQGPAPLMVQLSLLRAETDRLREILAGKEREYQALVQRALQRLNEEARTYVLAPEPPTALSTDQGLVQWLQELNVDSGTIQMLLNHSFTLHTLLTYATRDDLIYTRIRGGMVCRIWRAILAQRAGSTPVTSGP

CSNK2A1 = CSNK2A1 (Homo sapiens, UniProt P68400)
CSNK2A1, sequence (P68400 whole entry): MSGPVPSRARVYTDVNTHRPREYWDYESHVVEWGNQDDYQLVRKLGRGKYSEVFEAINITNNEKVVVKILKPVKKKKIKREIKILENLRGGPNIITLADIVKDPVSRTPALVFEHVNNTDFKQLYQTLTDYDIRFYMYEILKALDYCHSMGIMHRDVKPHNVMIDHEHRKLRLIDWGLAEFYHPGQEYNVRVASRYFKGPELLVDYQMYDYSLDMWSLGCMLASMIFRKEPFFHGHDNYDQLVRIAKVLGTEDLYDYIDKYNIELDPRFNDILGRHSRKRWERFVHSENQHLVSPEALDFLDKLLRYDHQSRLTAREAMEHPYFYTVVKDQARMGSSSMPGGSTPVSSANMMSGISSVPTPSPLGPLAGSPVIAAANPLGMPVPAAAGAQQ

FLT3(D835H) = target: T3, FLT3(D835H) (Homo sapiens, UniProt P36888, D835H)
T3 sequence (P36888 1-993 D835H): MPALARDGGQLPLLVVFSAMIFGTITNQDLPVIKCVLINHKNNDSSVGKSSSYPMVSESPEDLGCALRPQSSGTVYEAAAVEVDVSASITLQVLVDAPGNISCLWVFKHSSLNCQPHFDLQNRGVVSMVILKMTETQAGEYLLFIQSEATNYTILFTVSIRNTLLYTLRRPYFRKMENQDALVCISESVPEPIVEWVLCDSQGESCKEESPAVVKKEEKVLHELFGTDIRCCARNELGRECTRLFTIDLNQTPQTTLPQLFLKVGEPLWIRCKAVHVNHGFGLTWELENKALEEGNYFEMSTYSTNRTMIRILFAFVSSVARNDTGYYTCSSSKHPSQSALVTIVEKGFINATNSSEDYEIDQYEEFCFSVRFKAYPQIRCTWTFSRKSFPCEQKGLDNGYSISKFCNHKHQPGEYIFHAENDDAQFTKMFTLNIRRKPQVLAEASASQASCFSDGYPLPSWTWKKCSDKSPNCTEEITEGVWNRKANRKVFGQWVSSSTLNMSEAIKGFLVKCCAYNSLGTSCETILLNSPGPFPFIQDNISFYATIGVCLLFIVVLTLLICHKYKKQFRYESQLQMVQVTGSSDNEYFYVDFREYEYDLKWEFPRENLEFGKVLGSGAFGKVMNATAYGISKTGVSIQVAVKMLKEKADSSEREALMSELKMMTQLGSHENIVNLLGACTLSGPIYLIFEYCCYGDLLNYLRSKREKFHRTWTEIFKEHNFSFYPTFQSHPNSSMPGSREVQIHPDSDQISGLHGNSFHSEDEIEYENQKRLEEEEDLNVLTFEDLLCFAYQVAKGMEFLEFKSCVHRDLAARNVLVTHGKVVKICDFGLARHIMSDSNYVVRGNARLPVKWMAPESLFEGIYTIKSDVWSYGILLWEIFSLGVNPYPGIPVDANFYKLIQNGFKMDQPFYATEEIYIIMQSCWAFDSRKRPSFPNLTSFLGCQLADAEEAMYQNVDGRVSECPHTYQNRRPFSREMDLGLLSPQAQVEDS

MAPKAPK2 = MAPKAPK2 (Homo sapiens, UniProt P49137)
MAPKAPK2, sequence (P49137 whole entry): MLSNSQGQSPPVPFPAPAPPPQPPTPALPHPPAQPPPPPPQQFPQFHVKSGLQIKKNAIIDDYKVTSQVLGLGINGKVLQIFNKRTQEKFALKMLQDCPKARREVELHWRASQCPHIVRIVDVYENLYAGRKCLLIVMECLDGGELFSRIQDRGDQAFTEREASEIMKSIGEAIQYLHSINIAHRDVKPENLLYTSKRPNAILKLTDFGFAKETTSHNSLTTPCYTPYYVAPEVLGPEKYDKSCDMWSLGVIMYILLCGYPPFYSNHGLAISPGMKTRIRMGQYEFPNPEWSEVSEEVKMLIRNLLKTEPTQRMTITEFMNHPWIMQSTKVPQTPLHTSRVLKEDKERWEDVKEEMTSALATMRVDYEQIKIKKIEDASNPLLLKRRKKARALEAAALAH

[2] = target: T4, RSK2(Kin.Dom.2-C-terminal) (Homo sapiens, UniProt P51812)
T4 construct: gene RPS6KA3; Kin.Dom.2-C-terminal
T4 sequence (P51812 whole entry): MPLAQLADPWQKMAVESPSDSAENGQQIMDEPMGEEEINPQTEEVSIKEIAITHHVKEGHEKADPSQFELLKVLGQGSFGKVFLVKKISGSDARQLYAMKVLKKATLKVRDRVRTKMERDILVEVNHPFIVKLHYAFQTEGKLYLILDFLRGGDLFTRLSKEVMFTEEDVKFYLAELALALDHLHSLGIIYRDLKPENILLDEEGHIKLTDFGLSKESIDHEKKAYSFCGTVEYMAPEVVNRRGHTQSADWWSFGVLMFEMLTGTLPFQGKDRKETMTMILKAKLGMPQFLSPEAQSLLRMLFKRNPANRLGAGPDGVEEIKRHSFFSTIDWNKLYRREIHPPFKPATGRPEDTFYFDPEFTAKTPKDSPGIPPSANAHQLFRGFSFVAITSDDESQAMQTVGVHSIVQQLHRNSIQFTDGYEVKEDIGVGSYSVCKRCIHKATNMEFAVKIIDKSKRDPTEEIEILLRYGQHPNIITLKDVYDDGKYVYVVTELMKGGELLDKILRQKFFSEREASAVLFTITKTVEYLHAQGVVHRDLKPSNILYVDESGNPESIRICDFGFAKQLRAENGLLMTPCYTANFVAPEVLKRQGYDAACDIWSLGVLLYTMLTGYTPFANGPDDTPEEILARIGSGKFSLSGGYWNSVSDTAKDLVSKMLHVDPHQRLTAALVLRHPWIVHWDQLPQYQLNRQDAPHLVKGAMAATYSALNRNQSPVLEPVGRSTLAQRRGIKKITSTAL

WEE1 = WEE1 (Homo sapiens, UniProt P30291)
WEE1, sequence (P30291 whole entry): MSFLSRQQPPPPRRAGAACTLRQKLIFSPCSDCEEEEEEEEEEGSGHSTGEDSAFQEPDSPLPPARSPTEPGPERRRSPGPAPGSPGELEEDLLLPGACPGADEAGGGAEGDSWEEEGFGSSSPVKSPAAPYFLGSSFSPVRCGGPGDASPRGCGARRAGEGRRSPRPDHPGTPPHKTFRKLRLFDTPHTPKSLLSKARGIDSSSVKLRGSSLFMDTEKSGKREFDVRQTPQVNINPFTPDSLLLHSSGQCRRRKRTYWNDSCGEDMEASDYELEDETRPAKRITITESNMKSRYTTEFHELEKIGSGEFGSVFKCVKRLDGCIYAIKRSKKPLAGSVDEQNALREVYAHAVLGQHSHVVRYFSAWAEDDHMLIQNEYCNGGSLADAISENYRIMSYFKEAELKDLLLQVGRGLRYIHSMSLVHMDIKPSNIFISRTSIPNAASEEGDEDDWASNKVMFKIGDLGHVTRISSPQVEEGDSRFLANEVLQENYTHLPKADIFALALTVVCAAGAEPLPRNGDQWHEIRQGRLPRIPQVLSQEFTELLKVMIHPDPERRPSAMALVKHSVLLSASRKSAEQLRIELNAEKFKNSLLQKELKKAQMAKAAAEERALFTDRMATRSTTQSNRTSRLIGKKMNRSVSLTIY

[3] = read-out: Niraparib (MK-4827) / %Ctrl @ 10000nM
[4] = read-out: Olaparib / %Ctrl @ 10000nM
[5] = read-out: Rucaparib / %Ctrl @ 10000nM, binding competition, % of control
[6] = read-out: Talazoparib (BMN 673) / %Ctrl @ 10000nM

Compound: NC(=O)c1cccc2cn(-c3ccc([C@@H]4CCCNC4)cc3)nc12 [Niraparib]
percent of control binding at 10 µM [1, 3]: 95%
percent of control binding at 10 µM (ASK2; [3]): 98%
percent of control binding at 10 µM (CSNK2A1; [3]): 6.8%
percent of control binding at 10 µM (FLT3(D835H); [3]): 83%
percent of control binding at 10 µM (MAPKAPK2; [3]): 80%
percent of control binding at 10 µM [2, 3]: 100%
percent of control binding at 10 µM (WEE1; [3]): 100%

percent of control binding at 10 µM [1, 4]: 87%
percent of control binding at 10 µM (ASK2; [4]): 80%
percent of control binding at 10 µM (CSNK2A1; [4]): 88%
percent of control binding at 10 µM (FLT3(D835H); [4]): 91%
percent of control binding at 10 µM (MAPKAPK2; [4]): 84%
percent of control binding at 10 µM [2, 4]: 72%
percent of control binding at 10 µM (WEE1; [4]): 100%
Compound: O=C(c1cc(Cc2n[nH]c(=O)c3ccccc23)ccc1F)N1CCN(C(=O)C2CC2)CC1 [Olaparib]

percent of control binding at 10 µM [1, 5]: 67%
percent of control binding at 10 µM (ASK2; [5]): 77%
percent of control binding at 10 µM (CSNK2A1; [5]): 2.2%
Rucaparib / %Ctrl @ 10000nM (FLT3(D835H); binding competition, % of control): 42%
percent of control binding at 10 µM (MAPKAPK2; [5]): 100%
percent of control binding at 10 µM [2, 5]: 64%
percent of control binding at 10 µM (WEE1; [5]): 92%
Compound: CNCc1ccc(-c2[nH]c3cc(F)cc4c3c2CCNC4=O)cc1 [Rucaparib]

percent of control binding at 10 µM [1, 6]: 100%
percent of control binding at 10 µM (ASK2; [6]): 85%
percent of control binding at 10 µM (CSNK2A1; [6]): 98%
percent of control binding at 10 µM (FLT3(D835H); [6]): 89%
percent of control binding at 10 µM (MAPKAPK2; [6]): 100%
percent of control binding at 10 µM [2, 6]: 100%
percent of control binding at 10 µM (WEE1; [6]): 100%
Compound: Cn1ncnc1[C@H]1c2n[nH]c(=O)c3cc(F)cc(c23)N[C@@H]1c1ccc(F)cc1 [Talazoparib]
